Experimental data as given in article PMC7517831, “Integrating Machine Learning-Based Virtual Screening With Multiple Protein Structures and Bio-Assay Evaluation for Discovery of Novel GSK3β Inhibitors” (Frontiers in Pharmacology, 2020).

Target: T1, Glycogen synthase kinase-3β (GSK3β) (Homo sapiens, UniProt P49841)
T1 construct: gene GSK3B
Experiment: ADP-Glo luminescent kinase assay, nine-point dose curve
Type: biochemical

T1 sequence (P49841 whole entry): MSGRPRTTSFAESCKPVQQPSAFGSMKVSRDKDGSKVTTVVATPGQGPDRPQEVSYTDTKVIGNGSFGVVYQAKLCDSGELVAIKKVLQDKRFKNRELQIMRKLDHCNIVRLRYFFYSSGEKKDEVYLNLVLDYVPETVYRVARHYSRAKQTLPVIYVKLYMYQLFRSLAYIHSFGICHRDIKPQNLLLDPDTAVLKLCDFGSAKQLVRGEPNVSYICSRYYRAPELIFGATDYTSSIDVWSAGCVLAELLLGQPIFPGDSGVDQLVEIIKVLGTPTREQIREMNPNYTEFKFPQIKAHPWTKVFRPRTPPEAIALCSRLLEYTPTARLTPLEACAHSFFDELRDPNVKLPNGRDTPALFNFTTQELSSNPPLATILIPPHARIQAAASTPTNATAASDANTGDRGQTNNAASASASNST

Structure (SMILES)	IC50
COc1cccc(-n2c(=S)sc3c(=O)[nH]c(SCC(=O)Nc4cccc(Cl)c4)nc32)c1 [Cpd22]	15.5 µM
CC(C)(C)[C@H]1CCc2[nH]nc(C(=O)NC3CC3)c2C1 [Cpd49]	9.34 µM
